Source: patent publication US20240262803A1, “COMPOUNDS, COMPOSITIONS AND METHODS OF TREATING DISORDERS” (Chungdu Anticancer Bioscience Ltd, priority 2021, published 2024)
Where two headings read alike, the source gives them in different places.

Tests used:
[1] = system: lung cancer cell line NCI-H23; assay: MTT assay of cellular proliferation, NCI-H23; format: cell-based; details: Homo sapiens, read-out: EC50: Concentration that inhibits 50% of proliferation
In short: (§1)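 DMEM/5% FBS, 37 °C, 5% CO2; seed, 15˜24 h to 20˜30% confluence; compound 1 nM–10 μM; MTT 3˜4 h at endpoint; solubilize, OD570; EC50 = 50% growth inhibition.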

[2] = system: cervical cancer cell line Hela; assay: Minimal effective concentration that elicits polyploidy, Hela; format: cell-based; details: Homo sapiens, read-out: MECP: Minimal effective concentration that elicits polyploidy
RPEMYC^H2B-GFP cells [3] = assay: Mechanism-informed phenotypic screening assay (mitotic arrest, polyploidy; GE IN-Cell Analyzer 2000); format: cell-based; details: 20 nM to 20 μM, 24, 48 or 72 hours, read-out: Mitotic Arrest (≥5%)
SW480 = assay: Minimal effective concentration that elicits polyploidy, SW480; format: cell-based; details: Homo sapiens, read-out: MECP: Minimal effective concentration that elicits polyploidy
[4] = system: lung cancer cell line A549; assay: Minimal effective concentration that elicits polyploidy, A549; format: cell-based; details: Homo sapiens, read-out: MECP: Minimal effective concentration that elicits polyploidy
[5] = system: colon cancer cell line HCT116; assay: MTT assay of cellular proliferation, HCT116; format: cell-based; details: Homo sapiens, HCT-116, read-out: EC50: Concentration that inhibits 50% of proliferation
In short: as §1

[6] = system: colon cancer cell line SW460; assay: MTT assay of cellular proliferation, SW460; format: cell-based; details: Homo sapiens, SW480; read-out: EC50: Concentration that inhibits 50% of proliferation
In short: as §1

[7] = system: lung cancer cell line NCI-H23; assay: Minimal effective concentration that elicits polyploidy, NCI-H23; format: cell-based; details: Homo sapiens, read-out: MECP: Minimal effective concentration that elicits polyploidy
[8] = system: colon cancer cell line HCT116; assay: Minimal effective concentration that elicits polyploidy, HCT116; format: cell-based; details: Homo sapiens, HCT-116, read-out: MECP: Minimal effective concentration that elicits polyploidy
[9] = system: cervical cancer cell line Hela; assay: MTT assay of cellular proliferation, Hela; format: cell-based; details: Homo sapiens, read-out: EC50: Concentration that inhibits 50% of proliferation
In short: as §1

[10] = system: breast cancer cell line MDA-MB-231; assay: MTT assay of cellular proliferation, MDA-MB-231; format: cell-based; details: Homo sapiens, read-out: EC50: Concentration that inhibits 50% of proliferation
In short: as §1

[11] = system: breast cancer cell line MDA-MB-231; assay: Minimal effective concentration that elicits polyploidy, MDA-MB-231; format: cell-based; details: Homo sapiens, read-out: MECP: Minimal effective concentration that elicits polyploidy
[12] = system: liver cancer cell line T2 HCC; assay: Minimal effective concentration that elicits polyploidy, T2 HCC; format: cell-based; details: Mus musculus, read-out: MECP: Minimal effective concentration that elicits polyploidy
[13] = system: human colon cancer cell line HCT116; assay: Xenograft assay, HCT116; format: in vivo; details: HCT116 subcutaneous xenograft, Nu/Nu mice, oral gavage twice a day for 9 days, FIG. 4
Description: (§2) Xenografts were initiated in immunocompromised (Nu/Nu) mice with the human lung adenocarcinoma cell line NCI-H23 (FIG. 3) and the human colon cancer cell line HCT116 (FIG. 4). Five million cells were injected subcutaneously into each mouse and treatment was initiated when the average tumor volumes reached 150 mm3 (n=5/groups). Tumor-bearing mice were randomized into different groups to receive either vehicle or indicated compounds. The compounds were administered through oral gavage twice a day for 9 days. Day 0 on the x-axis indicates the day that treatment was initiated. For these experiments, all compounds were first dissolved in DMSO and then diluted 1:10 into a mixture containing 50% PEG300 and 49% PBS, 1% Tween 80, pH2.2. 100 ul of drug solution was administered with each dose. Tumor volumes were determined once every three days and are calculated from digital caliper raw data by using the formula: Volume (mm3)=(L×W^2)/2. The value W (Width) is the smaller of two perpendicular tumor axes and the value L (Length) is the larger of two perpendicular axes. Mean tumor volume growth curves and means are calculated for each treatment group.

[14] = system: liver cancer cell line T2 HCC; assay: MTT assay of cellular proliferation, T2 HCC; format: cell-based; details: Mus musculus, read-out: EC50: Concentration that inhibits 50% of proliferation
In short: as §1

[15] = system: lung cancer cell line A549; assay: MTT assay of cellular proliferation, A549; format: cell-based; details: Homo sapiens, read-out: EC50: Concentration that inhibits 50% of proliferation
In short: as §1

[16] = system: gastric cancer cell line NCI-N87; assay: Minimal effective concentration that elicits polyploidy, NCI-N87; format: cell-based; details: Homo sapiens, read-out: MECP: Minimal effective concentration that elicits polyploidy
[17] = system: human lung adenocarcinoma cell line NCI-H23; assay: Xenograft assay, NCI-H23; format: in vivo; details: NCI-H23 subcutaneous xenograft, Nu/Nu mice, oral gavage twice a day for 9 days, FIG. 3
Description: as §2

[18] = system: gastric cancer cell line NCI-N87; assay: MTT assay of cellular proliferation, NCI-N87; format: cell-based; details: Homo sapiens, read-out: EC50: Concentration that inhibits 50% of proliferation
In short: as §1

RPEMYC^H2B-GFP cells [19] = assay: Mechanism-informed phenotypic screening assay (mitotic arrest, polyploidy; GE IN-Cell Analyzer 2000); format: cell-based; details: 20 nM to 20 μM, 24, 48 or 72 hours, read-out: Min. Effective conc. for polyploidy (≥5%)
In short: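 Cells expressing Histone 2B-EGFP (RPEMYC^H2B-GFP) were plated 18-24 h before exposure to compounds at 20 nM to 20 μM. At 24, 48 or 72 h, imaging scored mitotic arrest or change in DNA content. Value is the lowest concentration giving polyploid accumulation at 48 h.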

Compound `COc1cc(OC)cc(Oc2ncccc2-c2ccnc(OC)c2)c1` [Compound 32, 2-(3,5-dimethoxyphenoxy)-2′-methoxy-3,4′-bipyridine] has an EC50 [1] of 1 to 1000 nM, a minimal effective concentration [2] of 0.001 to 1 µM and a minimal effective concentration (RPEMYC^H2B-GFP cells [3]) of 1 µM. The minimal effective concentration (SW480) was 0.001 to 1 µM, the minimal effective concentration [4] was 0.001 to 1 µM and the EC50 [5] was 1 to 1000 nM. The EC50 [6] was 1 to 1000 nM, the minimal effective concentration [7] was 0.001 to 1 µM and the minimal effective concentration [8] was 0.001 to 1 µM. It also gave an EC50 [9] of 1 to 1000 nM, an EC50 [10] of 1 to 1000 nM and a minimal effective concentration [11] of 0.001 to 1 µM. For the same compound, the minimal effective concentration [12] was 0.001 to 1 µM, the “tumor growth (tumor volume)” value [13] was “suppressing the tumor growth” and the EC50 [14] was 1 to 1000 nM. The EC50 [15] was 1 to 1000 nM, the minimal effective concentration [16] was 0.001 to 1 µM and the “tumor growth (tumor volume)” value [17] was “suppressing the tumor growth”. It also gave an EC50 [18] of 1 to 1000 nM and a minimal effective concentration (RPEMYC^H2B-GFP cells [19]) of 1 µM.
